Ends that are not written are not given here. Peptide text beside a SMILES is read from it.

Usually IC50 stands for the point on the concentration scale where inhibition reaches its midpoint.

The first test deals with T1, intestinal PYY-preferring receptors (Rattus norvegicus, UniProt Q9ERC0).
T1 sequence (Q9ERC0 1-381): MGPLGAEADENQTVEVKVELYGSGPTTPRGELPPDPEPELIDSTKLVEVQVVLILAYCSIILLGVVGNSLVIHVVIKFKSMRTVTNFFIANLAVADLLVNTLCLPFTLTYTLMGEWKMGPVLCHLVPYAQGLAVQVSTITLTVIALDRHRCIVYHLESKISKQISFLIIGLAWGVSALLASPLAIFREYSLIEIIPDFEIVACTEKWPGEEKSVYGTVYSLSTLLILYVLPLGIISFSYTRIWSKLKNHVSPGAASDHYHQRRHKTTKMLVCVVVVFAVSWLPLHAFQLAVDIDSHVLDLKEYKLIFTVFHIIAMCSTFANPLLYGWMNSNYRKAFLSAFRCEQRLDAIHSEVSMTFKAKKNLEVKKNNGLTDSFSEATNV
The conditions noted are these: BINDING IC50 (nM), Table 1; 125I-PYY, rat jejunal membranes; mean of three separate experiments.
Protocol: Bound and free peptides were separated by centrifugation at 20,000×g for 10 min.
All points in the binding experiments are the mean of at least three experiments performed in duplicate.
As to “ASLRHYENLVTRQRY-NH2 [[Glu^28]PYY(22-36), A S L R H Y [Glu] N L V T R Q R Y--NH2]”, the IC50 amounted to 199 nM. The compound “ASLRHYLNLVARQRY-NH2 [[Ala^32]PYY(22-36), A S L R H Y L N L V [Ala] R Q R Y--NH2]” showed a concentration for half-maximal inhibition (IC50) of 71 nM. Take “AALRHYLNLVARQRY-NH2 [[Ala^23,32]PYY(22-36), A [Ala] L R H Y L N L V [Ala] R Q R Y-NN2]”: the IC50 was more than 10000 nM. Take “Ac-ASLRHFLNLVTRQRY-NH2 [N-α-Ac-[Phe^27]PYY(22-36)]”: the IC50 was 0.8 nM.

`CC(=O)N[C@@H](C)C(=O)N[C@@H](CO)C(=O)N[C@@H](CC(C)C)C(=O)N[C@@H](CCCNC(=N)N)C(=O)N[C@@H](Cc1cnc[nH]1)C(=O)N[C@@H](Cc1ccc(O)cc1)C(=O)N[C@@H](CC(C)C)C(=O)N[C@@H](CC(N)=O)C(=O)N[C@@H](CC(C)C)C(=O)N[C@H](C(=O)N[C@H](C(=O)N[C@@H](CCCNC(=N)N)C(=O)N[C@@H](CCC(N)=O)C(=O)N[C@@H](CCCNC(=N)N)C(=O)N[C@@H](Cc1ccc(O)cc1)C(N)=O)[C@@H](C)O)C(C)C` [N-α-Ac-PYY(22-36), N-α-Ac-A S L R H Y L N L V T R Q R Y--NH2] displayed an IC50 of 1.12 nM.

The same test, now with this note: IC50 (nM), Table 2; receptor binding data.
In the case of `CC(=O)N[C@@H](C)C(=O)N[C@@H](CO)C(=O)N[C@@H](CC(C)C)C(=O)N[C@@H](CCCNC(=N)N)C(=O)N[C@@H](Cc1c[nH]cn1)C(=O)N[C@@H](Cc1cccs1)C(=O)N[C@@H](CC(C)C)C(=O)N[C@@H](CC(N)=O)C(=O)N[C@@H](CC(C)C)C(=O)N[C@H](C(=O)N[C@H](C(=O)N[C@@H](CCCNC(=N)N)C(=O)N[C@@H](CCC(N)=O)C(=O)N[C@@H](CCCNC(=N)N)C(=O)N[C@@H](Cc1ccc(O)cc1)C(N)=O)[C@@H](C)O)C(C)C` [Peptide 916] (HELM PEPTIDE1{[ac].A.S.L.R.H.[O=C([C@H](Cc1cccs1)N[*:1])[*:2]].L.N.L.V.T.R.Q.R.Y.[am]}$$$$V2.0), the IC50 stood at 0.095 nM. This counts as picomolar. Still for that read-out and setting: to `CC(=O)N[C@@H](C)C(=O)N[C@@H](CO)C(=O)N[C@@H](CC(C)C)C(=O)N[C@@H](CCCN=C(N)N)C(=O)N[C@@H](Cc1c[nH]cn1)C(=O)N[C@@H](Cc1ccc(-c2ccccc2)cc1)C(=O)N[C@@H](CC(C)C)C(=O)N[C@@H](CC(N)=O)C(=O)N[C@@H](CC(C)C)C(=O)N[C@H](C(=O)N[C@H](C(=O)N[C@@H](CCCN=C(N)N)C(=O)N[C@@H](CCC(N)=O)C(=O)N[C@@H](CCCN=C(N)N)C(=O)N[C@@H](Cc1ccc(O)cc1)C(N)=O)[C@@H](C)O)C(C)C` [Peptide 906, N-α-Ac-A S L R H [Bip] L N L V T R Q R Y--NH2] (HELM PEPTIDE1{[ac].A.S.L.R.H.[O=C([C@H](Cc1ccc(-c2ccccc2)cc1)N[*:1])[*:2]].L.N.L.V.T.R.Q.R.Y.[am]}$$$$V2.0) belongs 4.46 nM; to “Ac-ASLRHWLNLVTRQRY-NH2 [Peptide 915, N-α-Ac-A S L R H [Trp] L N L V T R Q R Y--NH2]”, 0.1 nM. As to `CC(=O)N[C@@H](C)C(=O)N[C@@H](CO)C(=O)N[C@@H](CC(C)C)C(=O)N[C@@H](CCCNC(=N)N)C(=O)N[C@@H](Cc1cnc[nH]1)C(=O)N[C@@H](Cc1ccc(O)cc1)C(=O)N[C@@H](CC(C)C)C(=O)N[C@@H](CC(N)=O)C(=O)N[C@@H](CC(C)C)C(=O)N[C@H](C(=O)N[C@H](C(=O)N[C@@H](CCCNC(=N)N)C(=O)N[C@@H](CCC(N)=O)C(=O)N[C@@H](CCCNC(=N)N)C(=O)N[C@@H](Cc1ccc(O)cc1)C(N)=O)[C@@H](C)O)C(C)C` [N-α-Ac-PYY(22-36), N-α-Ac-A S L R H Y L N L V T R Q R Y--NH2], the IC50 was found to be 0.08 nM. The IC50 values of the last two compounds are within 1.5-fold of each other.

The same test, now with this note: IC50 (nM), Table 3; binding activity.
On to “Ac-YSLRHFLNLVTRQRY-NH2 [Peptide 910, N-α-Ac-[Tyr] S L R H [Phe] L N L V T R Q R Y--NH2]”, for which the IC50 is 0.1 nM. Same read-out and setting: the result for “Ac-FSLRHFLNLVTRQRY-NH2 [Peptide 908, N-α-Ac-[Phe]S L R N [Phe] L N L V T R Q R Y--NH2]” reads 11.2 nM; that for `CC(=O)N[C@@H](C)C(=O)N[C@@H](CO)C(=O)N[C@@H](CC(C)C)C(=O)N[C@@H](CCCNC(=N)N)C(=O)N[C@@H](Cc1cnc[nH]1)C(=O)N[C@@H](Cc1ccccc1)C(=O)N[C@@H](CC(C)C)C(=O)N[C@@H](CC(N)=O)C(=O)N[C@@H](CC(C)C)C(=O)N[C@H](C(=O)N[C@H](C(=O)N[C@@H](CCCNC(=N)N)C(=O)N[C@@H](CCC(N)=O)C(=O)N[C@@H](CCCNC(=N)N)C(=O)N[C@@H](Cc1cccs1)C(N)=O)[C@@H](C)O)C(C)C` [Peptide 917, M-α-Ac-A S L R H (Phel L N L V T R Q R [Thi]-NH2] (HELM PEPTIDE1{[ac].A.S.L.R.H.F.L.N.L.V.T.R.Q.R.[O=C([C@H](Cc1cccs1)N[*:1])[*:2]].[am]}$$$$V2.0), 4.46 nM.

The record behind these values is patent US5604203A, “Analogs of peptide YY and uses thereof” (University of Cincinnati, priority 1994, dated 1997).
